Experimental data from article PMC9845330 (Communications Biology, 2023).
“Also recorded” adds a separate entry of the source. Non-standard residues stand in square brackets, D forms with d. Residues, ends and D or L forms follow the SMILES beside them. *: point of attachment. X1 = O=C(CCCC[C@@H]1SC[C@@H]2NC(=O)N[C@@H]21)NCCCOCCOCCOCCCN*; PEG12 = NCCOCCOCCOCCOCCOCCOCCOCCOCCOCCOCCOCCOCCC(=O)O

How the values were obtained:
HBEC cells = test: In vitro saporin delivery, cell viability (CellTiter-GLO); type: cell-based, human; settings: saporin conjugate, 6 h exposure, viability at 72 h
Description: The ability of MGS4_V8-saporin conjugate to induce cell death was determined.
Biotinylated peptide was conjugated to streptavidin-saporin (Advanced Targeting Systems Bio, San Diego, CA) in a 1:1 molar ratio. Increasing doses of peptide-drug conjugate in triplicate were incubated on the cells for 6 h at 37 °C. The drug was removed and replaced with complete growth media. After 72 h, cell viability was measured using CellTiter-GLO® (Promega, Madison, WI). Cell viability was normalized to untreated cells. IC50s were calculated using GraphPad Prism® using log(agonist) vs. response–Variable slope (four parameters). […]
M GS4_V4 (non-acetylated, panel a) and M GS4_V8 (acetylated, panel b ) were incubated in 100% human serum for 0 and 48-hours. Serum proteins were precipitated, and the peptide was analyzed by analytical
HPLC. The mass of the peptide and degradation products were determined by MALDI MS and are […]
MGS4_V8, MGS4_V9, or MGS4_V10 were conjugated with streptavidin-Alexa Fluor 650 and were incubated with the indicated cell line for 1 hour. Non-internalized peptide was rem ov ed, and the mean number of peptides internalized per cell was determined to calculate the EC50. […]
Supplemental Figure 4 : Peptide-Streptavidin conjugates are nontoxic to cells. a. […] After 72 hours, viability was measured. […]

[1] = test system: subcutaneous H2009 tumors; test: Tumor homing by near infrared imaging; type: in vivo, mouse; settings: for Total Radiant Efficiency: Mean
Description: Use of MGS4 as a delivery agent relies on its ability to target a tumor in an animal. MGS4_V8 and MGS4_V6 (control) were conjugated directly to Alexa Fluor 750. Each conjugate was injected intravenously into immunocompromised mice bearing subcutaneous H2009 tumors, and accumulation of the peptide was measured by near infrared imaging (Fig. 5a). MGS4_V8 tumor homing is observed at 12 h and 85% of that signal is maintained at 24 h. MGS4_V8 signal remains at 48 and 72 h, indicating persistent retention of the dye in the tumor. At all times, MGS4_V8 has 25-40-fold increased signal compared to the control peptide. […] Tumors were fixed in paraformaldehyde followed by whole tumor imaging on a LI-COR® Odyssey (Fig. 5b). A clear visual difference exists between tumors isolated from mice treated with MGS4_V8 compared to those treated with MGS4_V6 control or untreated. Quantification of fluorescence results in a 240-fold higher signal in the MGS4_V8 treated tumors compared to the MGS4_V6 group. Similar results were obtained when subcutaneous H1299 tumors were established in mice (Supplemental Fig. 5).
Fig. 5 MGS4_V8 homes to xenograft tumor after systemic delivery and can deliver saporin resulting in reduced tumor growth. a H2009 tumor bearing nude mice (N = 4) were injected I.V. with MGS4_V8 or MGS4_V6 conjugated to NIR dye Alexa Fluor 750. At 12, 24, 48, and 72 h postinjection, mice were anesthetized and imaged on an IVIS® (Perkin Elmer) to measure total radiant efficiency in each tumor. MGS4_V8 accumulates in tumor 25–39 fold better than control peptide, MGS4_V6. […] Ex vivo NIR imaging of the tumors at the end of the experiment mirrors the data observed in the living animals. […] Data for individual animals is included in Supplementary Table 8. b Excised tumors from the previous experiment were fixed in PBS + 4% formaldehyde and then imaged again together on a LI-COR® Odyssey. Arbitrary fluorescence units (AFU) were determined for each tumor and the average and SEM are shown below the image. The mean fluorescent intensity is 240-fold greater for MGS4_V8-Alexa Fluor 750 conjugate than the MGS4_V6 control conjugate. c Saporin was conjugated to either targeting MGS4_V8 or nontargeting MGS4_V6 and 7.5 µg of the conjugate was injected I.V. into mice bearing subcutaneous tumors. Animals were dosed 2 times per week for 2.5 weeks (indicated by arrows). Tumors were measured every other day. MGS4_V8-saporin clearly slows tumor growth, while nontargeted saporin has no effect compared to untreated animals. Error bars represent SEM, *p-value < 0.05, **p-value < 0.01, ***p-value < 0.001, ****p-value < 0.0001 (two-way ANOVA). d Tumor size (mm3) are shown for individual animals at days 0, 6, 12, and 18. Mean value is represented by the horizontal line and the error bars represent standard error. There is no statistical difference between MGS4_V6-Saporin and untreated at any day. At days 12 and 18 MGS4_V8-Saporin is statistically different than untreated (p-values 0.0099 and 0.0029, respectively) and MGS4_V6-Saporin (p-values 0.0069 and 0.0009, respectively). TEXT PRINTED IN THE PICTURE: (b) MGS4_V8: AFU: 3.3e6 ± 1.1e5; 240-fold | (b) MGS4_V6: AFU: 1.2e4 ± 2.7e3 DOUBTS OF THE COPYIST ABOUT THIS PICTURE: Panel b, 240-fold: printed under a line spanning MGS4_V8 and MGS4_V6; assigned to MGS4_V8 / Panel b, Untreated column (AFU: 1.6e3 ± 4.3e2) left out because it is a control without a substance
Animal experiments were approved by SRI International’s Institutional Animal Care and Use committee (Animal Welfare Assurance Number A3025-01, protocol 14008). H2009 cells (10^6) or H1299 cells (10^6) were implanted subcutaneously on the flank of female Nu/Nu mice (Jackson Laboratory, Bar Harbor, ME). When tumors reached 100 mm^3, in vivo experiments were initiated. For imaging, the indicated peptides were conjugated directly to Alexa Fluor 750 near-infrared dye (Supplemental Fig. 1). Four animals per group were used. […]

Row | Compound | IC50 (HBEC cells) | Total Radiant Efficiency ([1]; 12 h) | tumor signal maintained relative to 12 h ([1]; 24 h, Alexa Fluor 750 conjugate i.v.) [%] | Total Radiant Efficiency ([1]; 24 h) | Total Radiant Efficiency ([1]; 48 h) | Total Radiant Efficiency ([1]; 72 h (first line)) | Total Radiant Efficiency ([1]; 72 h (second line)) | fold fluorescence versus MGS4_V6 group ([1]; excised fixed tumors, 72 h, LI-COR Odyssey) [fold] | tumor signal versus untreated tumors ([1]; Alexa Fluor 750 conjugate)
1 | CC(=O)N[C@@H](Cc1ccccc1)C(=O)N[C@@H](Cc1c[nH]cn1)C(=O)N[C@@H](C)C(=O)N[C@H](C(=O)N1CCC[C@H]1C(=O)N[C@@H](CCC(N)=O)C(=O)N[C@@H](CO)C(=O)N[C@@H](Cc1ccccc1)C(=O)N[C@@H](Cc1ccc(O)cc1)C(=O)N[C@H](C(=O)NCCOCCOCCOCCOCCOCCOCCOCCOCCOCCOCCOCCOCCC(=O)N[C@@H](CCC(=O)NCCCOCCOCCOCCCNC(=O)CCCC[C@@H]1SC[C@@H]2NC(=O)N[C@@H]21)C(N)=O)[C@@H](C)O)C(C)C [MGS4_V8] (Ac-FHAVPQSFYT[PEG12]E(X1)-NH2) | do not reach 50% cell viability | 1.58e+010 | 85 | 1.33e+010 | 7.91e+009 | 7.00e+009 | 2.02e+010 | 240 | –
2 | *HAVPQSFYT** [MGS4_V6] | – | 3.94e+008 | – | 3.44e+008 | 2.64e+008 | 2.80e+008 | 2.00e+009 | – | no statistically significant difference; also recorded: statistically no different than untreated tumors
